Legend:
late watergrass = assay: Test Example 1: herbicidal activity, application before weed generation under submerged conditions (Table 16, symbol A); type: in vivo, late watergrass (Echinochloa oryzicola); details: 320 g/ha applied herbicide
Summary of the method: (§1)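 Submerged Wagner pots (alluvial soil, 4 cm water) sown with weed seeds and planted with 2.5-leaf rice seedlings; emulsifiable concentrate diluted in water applied to water surface on sowing day. Held in greenhouse at 25-30 °C; injury scored 0-5 by herbicidal rate after three weeks.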

Japanese bulrush = assay: Test Example 1: herbicidal activity, application before weed generation under submerged conditions (Table 16, symbol B); type: in vivo, Japanese bulrush (Schoenoplectus juncoides); details: 320 g/ha applied herbicide
Summary of the method: as §1

oval-leafed pondweed = assay: Test Example 1: herbicidal activity, application before weed generation under submerged conditions (Table 16, symbol C); type: in vivo, oval-leafed pondweed (Monochoria vaginalis); details: 320 g/ha applied herbicide
Summary of the method: as §1

barnyard grass [1] = assay: Test Example 3: herbicidal effect by foliage application, Wagner pot (Table 18, symbol H); type: in vivo, barnyard grass (Echinochloa crus-galli)
Summary of the method: (§2)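 Plants were sown in alluvial soil held under 0.1–0.5 cm standing water and grown 14 days in a greenhouse at 25–30 °C. An emulsifiable formulation, water-diluted to the set dose, was then sprayed onto the foliage, and effects were scored three weeks later using previously defined criteria.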

Chinese sprangletop = assay: Test Example 3: herbicidal effect by foliage application, Wagner pot (Table 18, symbol D); type: in vivo, chinese sprangletop (Leptochloa chinensis)
Summary of the method: as §2

rice flat sedge = assay: Test Example 3: herbicidal effect by foliage application, Wagner pot (Table 18, symbol E); type: in vivo, rice flat sedge (Cyperus iria)
Summary of the method: as §2

southern crabgrass [2] = assay: Test Example 4: herbicidal effect by soil treatment (Table 19, symbol F); type: in vivo, southern crabgrass (Digitaria ciliaris); details: amount of applied herbicide 320 g/ha
Summary of the method: (§3)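 Seeds were sown in sterilized diluvial soil and covered with about 1.5 cm of soil. An emulsion formulation diluted with water to a predetermined herbicide amount was sprayed evenly onto the soil surface. Plants grew in a greenhouse at 25° C. to 30° C., and the effect was scored three weeks after application using criteria from an earlier test.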

green foxtail [3] = assay: Test Example 4: herbicidal effect by soil treatment (Table 19, symbol G); type: in vivo, green foxtail (Setaria viridis); details: amount of applied herbicide 320 g/ha
Summary of the method: as §3

barnyard grass [4] = assay: Test Example 4: herbicidal effect by soil treatment (Table 19, symbol H); type: in vivo, barnyard grass (Echinochloa crus-galli); details: amount of applied herbicide 320 g/ha
Summary of the method: as §3

wild oat [5] = assay: Test Example 4: herbicidal effect by soil treatment (Table 19, symbol I); type: in vivo, wild oat (Avena fatua); details: amount of applied herbicide 320 g/ha
Summary of the method: as §3

blackgrass [6] = assay: Test Example 4: herbicidal effect by soil treatment (Table 19, symbol J); type: in vivo, blackgrass (Alopecurus myosuroides); details: amount of applied herbicide 320 g/ha
Summary of the method: as §3

Italian ryegrass [7] = assay: Test Example 4: herbicidal effect by soil treatment (Table 19, symbol K); type: in vivo, Italian ryegrass (Lolium multiflorum); details: amount of applied herbicide 320 g/ha
Summary of the method: as §3

windgrass [8] = assay: Test Example 4: herbicidal effect by soil treatment (Table 19, symbol L); type: in vivo, windgrass (Apera spica-venti); details: amount of applied herbicide 320 g/ha
Summary of the method: as §3

velvetleaf [9] = assay: Test Example 4: herbicidal effect by soil treatment (Table 19, symbol M); type: in vivo, velvetleaf (Abutilon theophrasti); details: amount of applied herbicide 320 g/ha
Summary of the method: as §3

redroot pigweed [10] = assay: Test Example 4: herbicidal effect by soil treatment (Table 19, symbol N); type: in vivo, redroot pigweed (Amaranthus retroflexus); details: amount of applied herbicide 320 g/ha
Summary of the method: as §3

lambsquarters [11] = assay: Test Example 4: herbicidal effect by soil treatment (Table 19, symbol O); type: in vivo, lambsquarters (Chenopodium album); details: amount of applied herbicide 320 g/ha
Summary of the method: as §3

chickweed [12] = assay: Test Example 4: herbicidal effect by soil treatment (Table 19, symbol P); type: in vivo, common chickweed (Stellaria media); details: amount of applied herbicide 320 g/ha
Summary of the method: as §3

persian speedwell [13] = assay: Test Example 4: herbicidal effect by soil treatment (Table 19, symbol R); type: in vivo, Persian speedwell (Veronica persica); details: amount of applied herbicide 320 g/ha
Summary of the method: as §3

southern crabgrass [14] = assay: Test Example 5: herbicidal effect by foliage application, plastic box (Table 20, symbol F); type: in vivo, southern crabgrass (Digitaria ciliaris); details: foliage application, 320 g/ha
Summary of the method: (§4)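 Plants sown in sterilized diluvial soil and grown 14 days in a greenhouse at 25° C to 30° C, then sprayed on the foliage with the compound's emulsion diluted in water to a predetermined herbicide amount. Injury to weeds and crops scored three weeks after application on a visual rating scale.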

green foxtail [15] = assay: Test Example 5: herbicidal effect by foliage application, plastic box (Table 20, symbol G); type: in vivo, green foxtail (Setaria viridis); details: foliage application, 320 g/ha
Summary of the method: as §4

barnyard grass [16] = assay: Test Example 5: herbicidal effect by foliage application, plastic box (Table 20, symbol H); type: in vivo, barnyard grass (Echinochloa crus-galli); details: foliage application, 320 g/ha
Summary of the method: as §4

wild oat [17] = assay: Test Example 5: herbicidal effect by foliage application, plastic box (Table 20, symbol I); type: in vivo, wild oat (Avena fatua); details: foliage application, 320 g/ha
Summary of the method: as §4

blackgrass [18] = assay: Test Example 5: herbicidal effect by foliage application, plastic box (Table 20, symbol J); type: in vivo, blackgrass (Alopecurus myosuroides); details: foliage application, 320 g/ha
Summary of the method: as §4

Italian ryegrass [19] = assay: Test Example 5: herbicidal effect by foliage application, plastic box (Table 20, symbol K); type: in vivo, Italian ryegrass (Lolium multiflorum); details: foliage application, 320 g/ha
Summary of the method: as §4

windgrass [20] = assay: Test Example 5: herbicidal effect by foliage application, plastic box (Table 20, symbol L); type: in vivo, windgrass (Apera spica-venti); details: foliage application, 320 g/ha
Summary of the method: as §4

velvetleaf [21] = assay: Test Example 5: herbicidal effect by foliage application, plastic box (Table 20, symbol M); type: in vivo, velvetleaf (Abutilon theophrasti); details: foliage application, 320 g/ha
Summary of the method: as §4

redroot pigweed [22] = assay: Test Example 5: herbicidal effect by foliage application, plastic box (Table 20, symbol N); type: in vivo, redroot pigweed (Amaranthus retroflexus); details: foliage application, 320 g/ha
Summary of the method: as §4

lambsquarters [23] = assay: Test Example 5: herbicidal effect by foliage application, plastic box (Table 20, symbol O); type: in vivo, lambsquarters (Chenopodium album); details: foliage application, 320 g/ha
Summary of the method: as §4

chickweed [24] = assay: Test Example 5: herbicidal effect by foliage application, plastic box (Table 20, symbol P); type: in vivo, common chickweed (Stellaria media); details: foliage application, 320 g/ha
Summary of the method: as §4

persian speedwell [25] = assay: Test Example 5: herbicidal effect by foliage application, plastic box (Table 20, symbol R); type: in vivo, Persian speedwell (Veronica persica); details: foliage application, 320 g/ha
Summary of the method: as §4

[26] = amount of applied herbicide 320 g/ha
[27] = evaluated three weeks after application

SMILES: COc1cc(F)ccc1-c1sc2ccc(NS(C)(=O)=O)cc2c1-c1c(O)c(C)nn(C)c1=O [2-183]
- Herbicidal effect on A: late watergrass (grade 0-5) (late watergrass): 2 (Herbicidal rate of 20% or more and less than 40%)
- Herbicidal effect on B: Japanese bulrush (grade 0-5) (Japanese bulrush): 0 (Herbicidal rate of 5% or less (almost no effect))
- Herbicidal effect on C: oval-leafed pondweed (grade 0-5) (oval-leafed pondweed): 0 (Herbicidal rate of 5% or less (almost no effect))
- herbicidal effect on H: barnyard grass (barnyard grass [1]; [26]): 4 (Herbicidal rate of 70% or more and less than 90%)
- herbicidal effect on D: Chinese sprangletop (Chinese sprangletop; [26]): 3 (Herbicidal rate of 40% or more and less than 70%)
- herbicidal effect on E: rice flat sedge (rice flat sedge; [26]): 0 (Herbicidal rate of 5% or less (almost no effect))
- F: southern crabgrass, herbicidal effect rating (southern crabgrass [2]): 0 (Herbicidal rate of 5% or less (almost no effect))
- G: green foxtail, herbicidal effect rating (green foxtail [3]): 0 (Herbicidal rate of 5% or less (almost no effect))
- H: barnyard grass, herbicidal effect rating (barnyard grass [4]): 0 (Herbicidal rate of 5% or less (almost no effect))
- I: wild oat, herbicidal effect rating (wild oat [5]): 0 (Herbicidal rate of 5% or less (almost no effect))
- J: blackgrass, herbicidal effect rating (blackgrass [6]): 0 (Herbicidal rate of 5% or less (almost no effect))
- K: Italian ryegrass, herbicidal effect rating (Italian ryegrass [7]): 0 (Herbicidal rate of 5% or less (almost no effect))
- L: windgrass, herbicidal effect rating (windgrass [8]): 0 (Herbicidal rate of 5% or less (almost no effect))
- M: velvetleaf, herbicidal effect rating (velvetleaf [9]): 0 (Herbicidal rate of 5% or less (almost no effect))
- N: redroot pigweed, herbicidal effect rating (redroot pigweed [10]): 0 (Herbicidal rate of 5% or less (almost no effect))
- O: lambsquarters, herbicidal effect rating (lambsquarters [11]): 0 (Herbicidal rate of 5% or less (almost no effect))
- P: chickweed, herbicidal effect rating (chickweed [12]): 3 (Herbicidal rate of 40% or more and less than 70%)
- R: persian speedwell, herbicidal effect rating (persian speedwell [13]): 3 (Herbicidal rate of 40% or more and less than 70%)
- herbicidal effect on F: southern crabgrass (criteria 0-5) (southern crabgrass [14]; [27]): 0 (Herbicidal rate of 5% or less (almost no effect))
- herbicidal effect on G: green foxtail (criteria 0-5) (green foxtail [15]; [27]): 0 (Herbicidal rate of 5% or less (almost no effect))
- herbicidal effect on H: barnyard grass (criteria 0-5) (barnyard grass [16]; [27]): 0 (Herbicidal rate of 5% or less (almost no effect))
- herbicidal effect on I: wild oat (criteria 0-5) (wild oat [17]; [27]): 0 (Herbicidal rate of 5% or less (almost no effect))
- herbicidal effect on J: blackgrass (criteria 0-5) (blackgrass [18]; [27]): 4 (Herbicidal rate of 70% or more and less than 90%)
- herbicidal effect on K: Italian ryegrass (criteria 0-5) (Italian ryegrass [19]; [27]): 0 (Herbicidal rate of 5% or less (almost no effect))
- herbicidal effect on L: windgrass (criteria 0-5) (windgrass [20]; [27]): 3 (Herbicidal rate of 40% or more and less than 70%)
- herbicidal effect on M: velvetleaf (criteria 0-5) (velvetleaf [21]; [27]): 1 (Herbicidal rate of 5% or more and less than 20%)
- herbicidal effect on N: redroot pigweed (criteria 0-5) (redroot pigweed [22]; [27]): 1 (Herbicidal rate of 5% or more and less than 20%)
- herbicidal effect on O: lambsquarters (criteria 0-5) (lambsquarters [23]; [27]): 3 (Herbicidal rate of 40% or more and less than 70%)
- herbicidal effect on P: chickweed (criteria 0-5) (chickweed [24]; [27]): 4 (Herbicidal rate of 70% or more and less than 90%)
- herbicidal effect on R: persian speedwell (criteria 0-5) (persian speedwell [25]; [27]): 4 (Herbicidal rate of 70% or more and less than 90%)

SMILES: CCCC(=O)Oc1c(C)nn(C)c(=O)c1-c1c(-c2cc(F)ccc2OC)sc2ccccc12 [1-059]
- Herbicidal effect on A: late watergrass (grade 0-5) (late watergrass): 3 (Herbicidal rate of 40% or more and less than 70%)
- Herbicidal effect on B: Japanese bulrush (grade 0-5) (Japanese bulrush): 2 (Herbicidal rate of 20% or more and less than 40%)
- Herbicidal effect on C: oval-leafed pondweed (grade 0-5) (oval-leafed pondweed): 1 (Herbicidal rate of 5% or more and less than 20%)
- herbicidal effect on H (barnyard grass), rating 0-5 (barnyard grass [1]; 320 g/ha): 3 (Herbicidal rate of 40% or more and less than 70%)
- herbicidal effect on D (Chinese sprangletop), rating 0-5 (Chinese sprangletop; 320 g/ha): 1 (Herbicidal rate of 5% or more and less than 20%)
- herbicidal effect on E (rice flat sedge), rating 0-5 (rice flat sedge; 320 g/ha): 5 (Herbicidal rate of 90% or more (almost completely withered))
- herbicidal effect rating, F: southern crabgrass (southern crabgrass [2]): 0 (Herbicidal rate of 5% or less (almost no effect))
- herbicidal effect rating, G: green foxtail (green foxtail [3]): 3 (Herbicidal rate of 40% or more and less than 70%)
- herbicidal effect rating, H: barnyard grass (barnyard grass [4]): 3 (Herbicidal rate of 40% or more and less than 70%)
- herbicidal effect rating, I: wild oat (wild oat [5]): 0 (Herbicidal rate of 5% or less (almost no effect))
- herbicidal effect rating, J: blackgrass (blackgrass [6]): 3 (Herbicidal rate of 40% or more and less than 70%)
- herbicidal effect rating, K: Italian ryegrass (Italian ryegrass [7]): 1 (Herbicidal rate of 5% or more and less than 20%)
- herbicidal effect rating, L: windgrass (windgrass [8]): 3 (Herbicidal rate of 40% or more and less than 70%)
- herbicidal effect rating, M: velvetleaf (velvetleaf [9]): 0 (Herbicidal rate of 5% or less (almost no effect))
- herbicidal effect rating, N: redroot pigweed (redroot pigweed [10]): 0 (Herbicidal rate of 5% or less (almost no effect))
- herbicidal effect rating, O: lambsquarters (lambsquarters [11]): 3 (Herbicidal rate of 40% or more and less than 70%)
- herbicidal effect rating, P: chickweed (chickweed [12]): 0 (Herbicidal rate of 5% or less (almost no effect))
- herbicidal effect rating, R: persian speedwell (persian speedwell [13]): 0 (Herbicidal rate of 5% or less (almost no effect))
- herbicidal effect grade, F: southern crabgrass (southern crabgrass [14]; three weeks after application): 0 (Herbicidal rate of 5% or less (almost no effect))
- herbicidal effect grade, G: green foxtail (green foxtail [15]; three weeks after application): 2 (Herbicidal rate of 20% or more and less than 40%)
- herbicidal effect grade, H: barnyard grass (barnyard grass [16]; three weeks after application): 3 (Herbicidal rate of 40% or more and less than 70%)
- herbicidal effect grade, I: wild oat (wild oat [17]; three weeks after application): 2 (Herbicidal rate of 20% or more and less than 40%)
- herbicidal effect grade, J: blackgrass (blackgrass [18]; three weeks after application): 3 (Herbicidal rate of 40% or more and less than 70%)
- herbicidal effect grade, K: Italian ryegrass (Italian ryegrass [19]; three weeks after application): 2 (Herbicidal rate of 20% or more and less than 40%)
- herbicidal effect grade, L: windgrass (windgrass [20]; three weeks after application): 4 (Herbicidal rate of 70% or more and less than 90%)
- herbicidal effect grade, M: velvetleaf (velvetleaf [21]; three weeks after application): 2 (Herbicidal rate of 20% or more and less than 40%)
- herbicidal effect grade, N: redroot pigweed (redroot pigweed [22]; three weeks after application): 3 (Herbicidal rate of 40% or more and less than 70%)
- herbicidal effect grade, O: lambsquarters (lambsquarters [23]; three weeks after application): 3 (Herbicidal rate of 40% or more and less than 70%)
- herbicidal effect grade, P: chickweed (chickweed [24]; three weeks after application): 5 (Herbicidal rate of 90% or more (almost completely withered))
- herbicidal effect grade, R: persian speedwell (persian speedwell [25]; three weeks after application): 2 (Herbicidal rate of 20% or more and less than 40%)

Source: US20230085307A1, “PYRIDAZINONE COMPOUND AND HERBICIDE” (NISSAN CHEMICAL CORPORATION, priority 2019, published 2023)
